Experimental data taken from ChEMBL document CHEMBL5113380, “Functionalized quinoxalinones as privileged structures with broad-ranging pharmacological activities” (Eur J Med Chem, 2022).

Columns and labels:
[1] = biological target: Glutamate receptor ionotropic AMPA (Homo sapiens, UniProt P42261+P42262+P42263+P48058); experiment: Agonist activity at AMPA receptor (unknown origin); assay type: protein-complex assay
[2] = test system: Rattus norvegicus; experiment: Ulcerogenic activity in male albino rat assessed as ulceration at 25 mg/kg, po; assay type: functional
[3] = test system: Mus musculus; experiment: Antiinflammatory activity against mouse assessed as reduction in carragenan-induced paw edema at 25 mg/kg,po treated 1 hr prior to carrageenan challenge; assay type: functional; set-up: scale not given: the % may be the effect or the level left
[4] = test system: RAW264.7; experiment: Anti-inflammatory activity in mouse RAW264.7 cells assessed as inhibition of LPS-induced NO production at 10 uM after 24 hrs by Griess reagent-based assay; assay type: functional; set-up: scale not given: the % may be the effect or the level left
[5] = test system: CT26; experiment: Antitumor activity against mouse CT26 cells xenografted in C57BL/6 mouse assessed as tumor suppression rate at 20 mg/kg, ip administered for 14 days; assay type: functional; conditions: time 14 day
[6] = test system: HCT-116; experiment: Antiproliferative activity against human HCT-116 cells after 48 hrs by MTT assay; assay type: functional, cell-based; conditions: HCT-116, 48 h
[7] = biological target: Bromodomain-containing protein 4 (Homo sapiens, UniProt O60885); experiment: Inhibition of BRD4 (unknown origin) using histone-H4 as substrate incubated for 15 mins and measured after 1 hr by AlphaScreen assay
[8] = Inhibition of ALR2 (unknown origin); set-up: species or system Homo sapiens
[9] = Inhibition of lipid peroxidation at 100 uM by measuring MDA concentration; assay type: functional; set-up: Activity: scale not given: the % may be the effect or the level left
[10] = Antioxidant activity assessed as DPPH radical scavenging activity at 100 uM; assay type: functional
[11] = Inhibition of lipid peroxidation at 10 uM by measuring MDA concentration; assay type: functional; set-up: scale not given: the % may be the effect or the level left
[12] = Antioxidant activity assessed as DPPH radical scavenging activity at 50 uM; assay type: functional
[13] = Inhibition of ALR1 (unknown origin) relative to control; set-up: concentration or dose not given beside the values; conditions: Homo sapiens; concentration not given here
[14] = test system: Plasmodium yoelii yoelii; experiment: Antiplasmodial activity against chloroquine-sensitive Plasmodium yoelii yoelii lethal strain infected in CD1 mouse measured for 4 days; assay type: functional; conditions: time 4 day
[15] = test system: Toxoplasma gondii; experiment: Anti-tachyzoite activity against Toxoplasma gondii at 100 uM; assay type: functional, type III
[16] = test system: Plasmodium yoelii yoelii; experiment: Antiplasmodial activity against chloroquine-sensitive Plasmodium yoelii yoelii lethal strain infected in CD1 mouse assessed as cured animal rate at 20 mg/kg, po; assay type: functional
[17] = test system: Hepatitis C virus; experiment: Antiviral activity against HCV; assay type: functional, organism-based, Hepacivirus hominis
[18] = test system: HepG2; experiment: Induction of apoptosis in human HepG2 cells assessed as fold increase in caspase-9 protein level; assay type: functional
[19] = test system: HepG2; experiment: Induction of apoptosis in human HepG2 cells assessed as fold increase in BAX/BCL-2 protein level; assay type: functional
[20] = biological target: Vascular endothelial growth factor receptor 2 (Homo sapiens, UniProt P35968)
[21] = test system: MCF7; experiment: Antiproliferative activity against human MCF7 cells; assay type: functional, cell-based
[22] = test system: HepG2; experiment: Induction of apoptosis in human HepG2 cells assessed as fold increase in caspase-3 protein level; assay type: functional
[23] = test system: HepG2; experiment: Cell cycle arrest in human HepG2 cells assessed as fold increase in accumulation at G2/M phase; assay type: functional
[24] = test system: HepG2; experiment: Antiproliferative activity against human HepG2 cells; assay type: functional, cell-based
[25] = test system: Human immunodeficiency virus 1; experiment: Antiviral activity against HIV1 measured by CPE assay; assay type: functional, organism-based
[26] = test system: Human immunodeficiency virus 1; experiment: Antiviral activity against HIV-1 A17; assay type: functional, organism-based; conditions: Human immunodeficiency virus 1, A17
[27] = biological target: Aminopeptidase N (Homo sapiens, UniProt P15144)
[28] = test system: Human immunodeficiency virus 1; experiment: Antiviral activity against HIV-1 74V; assay type: functional, organism-based; conditions: Human immunodeficiency virus 1, 74V
[29] = test system: Human immunodeficiency virus 1; experiment: Antiviral activity against HIV-1 IIIB; assay type: functional, organism-based; conditions: Human immunodeficiency virus 1, IIIB
[30] = Inhibition of DC-SIGN (unknown origin)
[31] = test system: Human immunodeficiency virus 1; experiment: Antiviral activity against HIV1; assay type: functional, organism-based
[32] = test system: L02; experiment: Antiproliferative activity against human HL7702 cells after 72 hrs by MTT assay; assay type: functional, cell-based; conditions: L02, 72 h
[33] = biological target: Fibroblast growth factor receptor 1 (Homo sapiens, UniProt P11362); experiment: Inhibition of FGFR1 (unknown origin) using ULight-JAK-1 (Tyr1023) peptide as substrate incubated for 90 mins and measured after 1 hr by LANCE Ultra TR-FRET assay
[34] = test system: B16-F10; experiment: Antiproliferative activity against mouse B16-F10 cells after 72 hrs by MTT assay; assay type: functional, cell-based; conditions: B16-F10, 72 h
[35] = test system: HCT-116; experiment: Antiproliferative activity against human HCT-116 cells after 72 hrs by MTT assay; assay type: functional, cell-based; conditions: HCT-116, 72 h
[36] = test system: HeLa 229; experiment: Antiproliferative activity against human HeLa 229 cells after 72 hrs by MTT assay; assay type: functional, cell-based; conditions: HeLa 229, 72 h
[37] = test system: NCI-H460; experiment: Antiproliferative activity against human NCI-H460 cells after 72 hrs by MTT assay; assay type: functional, cell-based; conditions: NCI-H460, 72 h
[38] = biological target: Fibroblast growth factor receptor 3 (Homo sapiens, UniProt P22607); experiment: Inhibition of FGFR3 (unknown origin)
[39] = biological target: Platelet-derived growth factor receptor beta (Homo sapiens, UniProt P09619); experiment: Inhibition of PDGFR-beta (unknown origin)
[40] = biological target: Human immunodeficiency virus type 1 reverse transcriptase (Human immunodeficiency virus 1) (UniProt Q72547); experiment: (§1) Inhibition of HIV1 reverse transcriptase
[41] = biological target: Human immunodeficiency virus type 1 reverse transcriptase (Human immunodeficiency virus 1, UniProt Q72547); experiment: as §1
[42] = test system: Candida albicans; experiment: Antifungal activity against Candida albicans assessed as diameter zone of inhibition; assay type: functional
[43] = Binding affinity to benzodiazepine receptor (unknown origin); set-up: species or system Homo sapiens

Chain of Fibroblast growth factor receptor 1 (P11362 whole entry): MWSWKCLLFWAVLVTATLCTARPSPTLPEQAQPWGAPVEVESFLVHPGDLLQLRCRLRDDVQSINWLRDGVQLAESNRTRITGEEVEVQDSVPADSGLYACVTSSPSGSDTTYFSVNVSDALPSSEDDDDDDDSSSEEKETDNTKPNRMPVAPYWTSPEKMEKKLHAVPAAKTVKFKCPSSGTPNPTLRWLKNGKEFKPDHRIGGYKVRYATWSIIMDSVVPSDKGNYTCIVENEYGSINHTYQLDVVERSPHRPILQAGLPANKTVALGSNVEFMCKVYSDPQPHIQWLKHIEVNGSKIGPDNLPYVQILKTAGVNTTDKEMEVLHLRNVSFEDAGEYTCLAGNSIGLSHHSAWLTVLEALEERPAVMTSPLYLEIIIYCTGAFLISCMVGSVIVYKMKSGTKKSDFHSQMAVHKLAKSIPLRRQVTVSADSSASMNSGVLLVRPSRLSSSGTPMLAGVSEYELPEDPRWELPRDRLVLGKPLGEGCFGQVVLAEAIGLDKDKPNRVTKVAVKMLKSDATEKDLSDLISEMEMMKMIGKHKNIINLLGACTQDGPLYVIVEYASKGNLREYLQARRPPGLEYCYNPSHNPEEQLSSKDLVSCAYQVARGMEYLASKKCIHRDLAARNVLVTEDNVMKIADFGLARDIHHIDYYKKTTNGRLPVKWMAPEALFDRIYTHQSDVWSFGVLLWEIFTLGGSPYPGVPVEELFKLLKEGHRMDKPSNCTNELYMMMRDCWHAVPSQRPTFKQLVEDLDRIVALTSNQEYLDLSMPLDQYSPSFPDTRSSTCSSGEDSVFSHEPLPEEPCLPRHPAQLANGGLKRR
Chain of Vascular endothelial growth factor receptor 2 (P35968 whole entry): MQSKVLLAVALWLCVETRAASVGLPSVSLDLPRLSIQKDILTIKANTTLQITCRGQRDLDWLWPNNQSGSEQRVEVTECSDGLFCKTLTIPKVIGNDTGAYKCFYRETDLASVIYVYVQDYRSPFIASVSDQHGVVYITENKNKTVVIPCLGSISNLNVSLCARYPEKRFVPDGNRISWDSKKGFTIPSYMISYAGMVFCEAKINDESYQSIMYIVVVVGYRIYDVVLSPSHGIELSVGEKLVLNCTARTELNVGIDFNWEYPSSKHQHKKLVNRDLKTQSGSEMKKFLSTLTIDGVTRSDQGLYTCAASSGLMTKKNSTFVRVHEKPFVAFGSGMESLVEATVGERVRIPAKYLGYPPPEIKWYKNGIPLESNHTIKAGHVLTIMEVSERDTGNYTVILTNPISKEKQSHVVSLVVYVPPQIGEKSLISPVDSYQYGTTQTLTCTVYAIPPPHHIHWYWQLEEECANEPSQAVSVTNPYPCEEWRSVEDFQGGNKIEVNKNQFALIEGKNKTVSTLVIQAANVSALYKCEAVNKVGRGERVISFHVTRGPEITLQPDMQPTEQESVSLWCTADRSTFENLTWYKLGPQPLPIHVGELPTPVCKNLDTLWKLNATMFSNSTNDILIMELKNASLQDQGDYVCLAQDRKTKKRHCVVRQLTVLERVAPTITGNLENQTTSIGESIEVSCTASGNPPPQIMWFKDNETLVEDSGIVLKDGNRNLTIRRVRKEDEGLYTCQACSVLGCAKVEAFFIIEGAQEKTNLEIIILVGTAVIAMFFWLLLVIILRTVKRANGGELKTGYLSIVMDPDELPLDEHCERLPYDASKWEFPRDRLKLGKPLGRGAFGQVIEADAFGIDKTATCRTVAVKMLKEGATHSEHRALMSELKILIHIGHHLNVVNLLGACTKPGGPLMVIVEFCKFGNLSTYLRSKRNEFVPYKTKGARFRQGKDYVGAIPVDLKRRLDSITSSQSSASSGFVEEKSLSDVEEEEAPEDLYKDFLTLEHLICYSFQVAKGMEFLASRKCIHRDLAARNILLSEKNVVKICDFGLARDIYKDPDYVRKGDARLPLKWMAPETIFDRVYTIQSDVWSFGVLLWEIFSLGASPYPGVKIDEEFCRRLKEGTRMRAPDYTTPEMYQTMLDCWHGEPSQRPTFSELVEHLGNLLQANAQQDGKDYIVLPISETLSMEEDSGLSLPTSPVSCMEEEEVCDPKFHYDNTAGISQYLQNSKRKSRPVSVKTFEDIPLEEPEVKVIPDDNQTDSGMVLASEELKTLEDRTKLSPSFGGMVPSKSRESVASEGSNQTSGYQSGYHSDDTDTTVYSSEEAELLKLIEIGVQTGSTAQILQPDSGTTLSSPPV
Chain of Aminopeptidase N (P15144 whole entry): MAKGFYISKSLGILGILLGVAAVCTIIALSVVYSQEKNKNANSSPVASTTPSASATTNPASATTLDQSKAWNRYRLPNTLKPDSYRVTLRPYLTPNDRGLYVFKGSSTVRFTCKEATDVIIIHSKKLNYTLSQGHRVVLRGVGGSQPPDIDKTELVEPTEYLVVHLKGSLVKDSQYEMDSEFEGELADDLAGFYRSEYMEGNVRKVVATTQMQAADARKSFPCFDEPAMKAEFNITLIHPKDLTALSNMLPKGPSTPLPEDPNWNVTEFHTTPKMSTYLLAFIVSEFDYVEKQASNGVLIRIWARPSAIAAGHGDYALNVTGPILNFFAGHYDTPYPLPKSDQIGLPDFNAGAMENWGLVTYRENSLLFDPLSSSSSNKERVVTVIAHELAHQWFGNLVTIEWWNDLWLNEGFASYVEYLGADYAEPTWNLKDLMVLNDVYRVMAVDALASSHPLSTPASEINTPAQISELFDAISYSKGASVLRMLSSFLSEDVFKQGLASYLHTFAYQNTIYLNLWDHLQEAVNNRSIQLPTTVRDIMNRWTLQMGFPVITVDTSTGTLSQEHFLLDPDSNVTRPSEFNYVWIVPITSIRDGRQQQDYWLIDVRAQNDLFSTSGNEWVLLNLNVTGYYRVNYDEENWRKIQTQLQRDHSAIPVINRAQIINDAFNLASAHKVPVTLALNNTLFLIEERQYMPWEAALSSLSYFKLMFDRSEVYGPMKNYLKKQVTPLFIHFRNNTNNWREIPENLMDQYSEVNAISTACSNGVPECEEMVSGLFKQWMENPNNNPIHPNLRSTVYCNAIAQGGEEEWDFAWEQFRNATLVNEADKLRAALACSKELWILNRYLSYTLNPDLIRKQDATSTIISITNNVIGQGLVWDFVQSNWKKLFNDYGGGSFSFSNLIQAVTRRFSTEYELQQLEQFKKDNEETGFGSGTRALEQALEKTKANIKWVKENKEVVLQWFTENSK
Chain of Fibroblast growth factor receptor 3 (P22607 whole entry): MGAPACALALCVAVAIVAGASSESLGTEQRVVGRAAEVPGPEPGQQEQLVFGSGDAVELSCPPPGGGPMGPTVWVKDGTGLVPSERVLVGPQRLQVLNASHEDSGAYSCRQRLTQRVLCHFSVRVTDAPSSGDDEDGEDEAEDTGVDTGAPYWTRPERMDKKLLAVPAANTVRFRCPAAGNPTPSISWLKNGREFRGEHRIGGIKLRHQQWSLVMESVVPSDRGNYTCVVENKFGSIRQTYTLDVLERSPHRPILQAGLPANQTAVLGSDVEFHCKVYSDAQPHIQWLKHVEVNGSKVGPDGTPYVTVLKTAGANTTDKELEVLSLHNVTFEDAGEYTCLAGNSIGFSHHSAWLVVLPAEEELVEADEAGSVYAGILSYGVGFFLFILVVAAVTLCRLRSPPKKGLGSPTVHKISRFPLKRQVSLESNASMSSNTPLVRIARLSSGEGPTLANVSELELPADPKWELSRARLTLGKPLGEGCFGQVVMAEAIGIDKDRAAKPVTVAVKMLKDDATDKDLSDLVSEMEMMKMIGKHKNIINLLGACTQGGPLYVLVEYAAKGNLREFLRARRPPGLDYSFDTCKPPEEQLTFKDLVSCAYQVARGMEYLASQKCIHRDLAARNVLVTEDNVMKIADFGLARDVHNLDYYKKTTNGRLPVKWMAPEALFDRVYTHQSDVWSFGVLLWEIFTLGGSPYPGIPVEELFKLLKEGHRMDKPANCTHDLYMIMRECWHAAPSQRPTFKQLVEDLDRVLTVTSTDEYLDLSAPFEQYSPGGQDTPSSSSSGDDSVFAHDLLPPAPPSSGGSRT
Chain of Platelet-derived growth factor receptor beta (P09619 whole entry): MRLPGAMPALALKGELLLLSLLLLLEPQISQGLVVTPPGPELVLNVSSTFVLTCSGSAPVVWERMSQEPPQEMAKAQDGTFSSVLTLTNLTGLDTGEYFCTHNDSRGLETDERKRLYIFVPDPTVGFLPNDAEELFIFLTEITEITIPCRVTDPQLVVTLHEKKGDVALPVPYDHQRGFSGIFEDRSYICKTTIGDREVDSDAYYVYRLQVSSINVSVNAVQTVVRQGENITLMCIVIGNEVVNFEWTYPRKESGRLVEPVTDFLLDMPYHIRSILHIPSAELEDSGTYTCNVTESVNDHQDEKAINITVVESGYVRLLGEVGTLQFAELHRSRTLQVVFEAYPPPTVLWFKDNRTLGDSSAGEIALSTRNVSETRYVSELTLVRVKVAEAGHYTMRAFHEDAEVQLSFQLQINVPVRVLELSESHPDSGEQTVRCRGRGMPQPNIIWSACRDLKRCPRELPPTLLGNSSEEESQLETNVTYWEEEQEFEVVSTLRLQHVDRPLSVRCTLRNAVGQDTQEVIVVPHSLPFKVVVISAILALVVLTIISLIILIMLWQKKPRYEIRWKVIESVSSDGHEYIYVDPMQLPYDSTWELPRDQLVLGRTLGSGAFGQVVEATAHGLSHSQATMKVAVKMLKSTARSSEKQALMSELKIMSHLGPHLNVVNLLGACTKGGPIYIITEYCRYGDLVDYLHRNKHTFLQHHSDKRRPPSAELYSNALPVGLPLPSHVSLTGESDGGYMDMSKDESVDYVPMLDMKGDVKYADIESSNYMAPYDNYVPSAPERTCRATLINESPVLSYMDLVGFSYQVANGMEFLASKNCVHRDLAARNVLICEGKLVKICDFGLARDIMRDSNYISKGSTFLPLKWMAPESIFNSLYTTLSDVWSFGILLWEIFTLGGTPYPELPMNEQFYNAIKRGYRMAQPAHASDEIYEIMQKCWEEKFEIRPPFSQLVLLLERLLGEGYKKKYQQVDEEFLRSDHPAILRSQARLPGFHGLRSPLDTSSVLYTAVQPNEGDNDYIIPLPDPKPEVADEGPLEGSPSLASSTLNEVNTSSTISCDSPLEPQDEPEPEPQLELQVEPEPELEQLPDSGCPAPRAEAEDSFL

Question: With `N[C@@H](Cn1c(=O)c(=O)[nH]c2ccccc21)C(=O)O` as the molecule, how does the EC50 [1] read?
Answer: The EC50 was 3 µM.

Question: With `Cc1cccc(Oc2nn3c(C(N)=O)nnc3c3ccccc23)c1` as the molecule, how does the Activity [2] read?
Answer: The Activity was 20%.

Question: What about the Activity [3] of the same molecule?
Answer: The Activity was 42.81%.

Question: What about the Activity [4] of the same molecule?
Answer: Its Activity is 10.31%.

Question: Which Activity [5] does the source give for `Cc1noc(C)c1-c1ccc2c(c1)C(c1ccccc1)N(Cc1cn(CCOCCOCCOCCn3cc(CC4C(=O)N(C)c5ccc(-c6c(C)noc6C)cc5N4c4ccccc4)nn3)nn1)C(=O)N2C` (stereo not given) here?
Answer: Its Activity is 56.1%.

Question: And the IC50 [6]?
Answer: The IC50 was 0.162 µM.

Question: And the IC50 [7]?
Answer: Its IC50 is 0.0077 µM.

Question: What does the source list for `O=C(O)Cn1c(=O)c(Oc2cc(O)cc(O)c2)nc2ccc(Cl)cc21`?
Answer: IC50 [8]: 0.566 µM; Activity [9]: 55.3%; Activity [10]: 91.3%; Activity [11]: 26.6%; Activity [12]: 83.7%; inhibition [13]: 38.2%

Question: With `CN1C(=O)CN(CCCCCN2CCCCC2)c2ccc([N+](=O)[O-])cc21` as the molecule, how does the LD50 ([14]; Plasmodium yoelii, 96 h) read?
Answer: The LD50 was 56.5 mg/kg.

Question: What about the LD10 [14] of the same molecule?
Answer: The LD10 was 20.58 mg/kg.

Question: And the Activity [15]?
Answer: The Activity was 96%.

Question: What about the Activity [16] of the same molecule?
Answer: The Activity was 20%.

Question: Which EC50 [17] does the source give for `CCC(CC)N(C)c1cc2ncc(=O)[nH]c2cc1Nc1nc(-c2ccccc2)cs1` here?
Answer: Its EC50 is 1.27 µM.

Question: What does the source list for `O=C(Cn1c(=O)c2nncn2c2ccccc21)Nc1ccc(C(=O)Nc2ccc(Cl)cc2)cc1`?
Answer: fold change (FC) [18]: 1.82; fold change (FC) [19]: 3.81; IC50 [20]: 0.0034 µM; IC50 [21]: 7.2 µM; fold change (FC) [22]: 1.96; fold change (FC) [23]: 2.14; IC50 [24]: 4.1 µM

Question: What does the source list for `COc1cccc(/C=N/NC(=O)Cn2c(=O)c(C)nc3ccccc32)c1O`?
Answer: EC50 [25]: 2.79 µM; EC50 [26]: 2.46 µM; IC50 [27]: 80.9 µM; EC50 [28]: 3.48 µM; EC50 [29]: 6.05 µM

Question: With `NS(=O)(=O)c1ccc(CCCC2Nc3ccc(C(=O)N4CCN(c5ccncc5)CC4)cc3NC2=O)cc1` (stereo not given) as the molecule, how does the IC50 [30] read?
Answer: Its IC50 is 0.31 µM.

Question: For `O=C1CN(S(=O)(=O)c2c(Cl)cccc2Cl)c2cc(Cl)ccc2N1`, which EC50 [31] is on record?
Answer: Its EC50 is 1.09 µM.

Question: Which results are given for `O=c1c(/C=C/c2ccccc2Cl)nc2ccccc2n1Cc1ccccc1`?
Answer: IC50 [32]: > 100 µM; IC50 [33]: 25.7 µM; IC50 [34]: 3.39 µM; IC50 [35]: > 50 µM; IC50 [36]: > 50 µM; IC50 [37]: 18.1 µM; IC50 [38]: 94.5 µM

Question: What does the source list for `Cn1c(=O)c(/C=C/c2ccccn2)nc2ccccc21`?
Answer: IC50 [32]: 53.7 µM; IC50 [39]: > 89.5 µM; IC50 [33]: 26.7 µM; IC50 [34]: 6.64 µM; IC50 [35]: 7.63 µM; IC50 [36]: 14.6 µM; IC50 [37]: 5.78 µM

Question: For `CCOC(=O)N1c2ccccc2NC(=O)[C@]1(C#CC1CC1)C(F)(F)F`, which IC90 [40] is on record?
Answer: The IC90 was 0.0048 µM.

Question: What about the IC50 [41] of the same molecule?
Answer: The IC50 was 0.045 µM.

Question: For `CC(C)=NNc1nc2ccccc2[nH]c1=O`, which “diameter of the inhibition zone (DIZ)” value [42] is on record?
Answer: Its value is 31 mm.

Question: With `Oc1nc2ccc(Cl)cc2n2nc(-c3ccccc3F)nc12` as the molecule, how does the Ki [43] read?
Answer: Its Ki is 0.0029 µM.
